Laboratory results: patent US8349844B2, “Substituted pyrazolo [1,5-A] pyrimidines as metabotropic glutamate antagonists” (Hoffmann-La Roche Inc., priority 2005, dated 2013)

Row | SMILES | melting point
1 | NS(=O)(=O)c1ccc(-c2noc(-c3cnc4c(C(F)(F)F)cc(-c5ccc(C(F)(F)F)cc5)cn34)n2)cc1 [Example 13, 4-{5-[8-Trifluoromethyl-6-(4-trifluoromethyl-phenyl)-imidazo[1,2-a]pyridin-3-yl]-[1,2,4]oxadiazol-3-yl}-benzenesulfonamide] | 292 °C
2 | NS(=O)(=O)c1ccc(-c2nc(-c3cnn4c(C(F)(F)F)cc(-c5ccc(C(F)(F)F)cc5)nc34)no2)cc1 [Example 14, 4-{3-[7-Trifluoromethyl-5-(4-trifluoromethyl-phenyl)-pyrazolo[1,5-a]pyrimidin-3-yl]-[1,2,4]oxadiazol-5-yl}-benzenesulfonamide] | 292 °C
3 | NS(=O)(=O)c1cccc(-c2nc(-c3cnn4c(C(F)(F)F)cc(-c5ccc(C(F)(F)F)cc5)nc34)no2)c1 [Example 15, 3-{3-[7-Trifluoromethyl-5-(4-trifluoromethyl-phenyl)-pyrazolo[1,5-a]pyrimidin-3-yl]-[1,2,4]oxadiazol-5-yl}-benzenesulfonamide] | 285 °C
4 | NS(=O)(=O)c1cccc(-c2noc(-c3cnn4c(C(F)(F)F)cc(-c5ccc(C(F)(F)F)c(OCC(F)(F)F)c5)nc34)n2)c1 [Example 16, 3-(5-{5-[3-(2,2,2-Trifluoro-ethoxy)-4-trifluoromethyl-phenyl]-7-trifluoromethyl-pyrazolo[1,5-a]pyrimidin-3-yl}-[1,2,4]oxadiazol-3-yl)-benzenesulfonamide] | 250 °C
5 | Cc1cc(-c2cc(C(F)(F)F)n3ncc(-c4nc(-c5cccc(S(N)(=O)=O)c5)no4)c3n2)ccc1C(F)(F)F [Example 17, 3-{5-[5-(3-Methyl-4-trifluoromethyl-phenyl)-7-trifluoromethyl-pyrazolo[1,5-a]pyrimidin-3-yl]-[1,2,4]oxadiazol-3-yl}-benzenesulfonamide] | 270 °C
6 | Cc1cc(-c2cc(C(F)(F)F)n3ncc(-c4nc(-c5ccc(S(N)(=O)=O)cc5)no4)c3n2)ccc1C(F)(F)F [Example 18, 4-{5-[5-(3-Methyl-4-trifluoromethyl-phenyl)-7-trifluoromethyl-pyrazolo[1,5-a]pyrimidin-3-yl]-[1,2,4]oxadiazol-3-yl}-benzenesulfonamide] | 273 °C
7 | NS(=O)(=O)c1ccc(-c2noc(-c3cnn4c(C(F)(F)F)cc(-c5cccc(C(F)(F)F)c5)nc34)n2)cc1 [Example 25, 4-{5-[7-Trifluoromethyl-5-(3-trifluoromethyl-phenyl)-pyrazolo[1,5-a]pyrimidin-3-yl]-[1,2,4]oxadiazol-3-yl}-benzenesulfonamide] | 300 °C
8 | NS(=O)(=O)c1cccc(-c2noc(-c3cnn4c(C(F)(F)F)cc(-c5cccc(C(F)(F)F)c5)nc34)n2)c1 [Example 26, 3-{5-[7-Trifluoromethyl-5-(3-trifluoromethyl-phenyl)-pyrazolo[1,5-a]pyrimidin-3-yl]-[1,2,4]oxadiazol-3-yl}-benzenesulfonamide] | 251 °C

Next, values leading:

Row | melting point | SMILES
9 | 262 °C | NS(=O)(=O)c1cccc(-c2noc(-c3cnn4c(C(F)(F)F)cc(-c5ccc(C(F)(F)F)cc5)nc34)n2)c1 [Example 2, 3-{5-[7-Trifluoromethyl-5-(4-trifluoromethyl-phenyl)-pyrazolo[1,5-a]pyrimidin-3-yl]-[1,2,4]oxadiazol-3-yl}-benzenesulfonamide]
10 | 283 °C | NS(=O)(=O)c1ccc(-c2noc(-c3cnn4c(C(F)F)cc(-c5ccc(C(F)(F)F)cc5)nc34)n2)cc1 [Example 4, 4-{5-[7-Difluoromethyl-5-(4-trifluoromethyl-phenyl)-pyrazolo[1,5-a]pyrimidin-3-yl]-[1,2,4]oxadiazol-3-yl}-benzenesulfonamide]
11 | 267 °C | NS(=O)(=O)c1cccc(-c2noc(-c3cnn4c(C(F)F)cc(-c5ccc(C(F)(F)F)cc5)nc34)n2)c1 [Example 5, 3-{5-[7-Difluoromethyl-5-(4-trifluoromethyl-phenyl)-pyrazolo[1,5-a]pyrimidin-3-yl]-[1,2,4]oxadiazol-3-yl}-benzenesulfonamide]
12 | 247 °C | NS(=O)(=O)c1cccc(-c2noc(-c3cnn4c(C(F)(F)F)cc(-c5ccc(Cl)cc5)nc34)n2)c1 [Example 10, 3-{5-[5-(4-Chloro-phenyl)-7-trifluoromethyl-pyrazolo[1,5-a]pyrimidin-3-yl]-[1,2,4]oxadiazol-3-yl}-benzenesulfonamide]
13 | 296 °C | NS(=O)(=O)c1ccc(-c2noc(-c3cnn4c(C(F)(F)F)cc(-c5ccc(Cl)cc5)nc34)n2)cc1 [Example 12, 4-{5-[5-(4-Chloro-phenyl)-7-trifluoromethyl-pyrazolo[1,5-a]pyrimidin-3-yl]-[1,2,4]oxadiazol-3-yl}-benzenesulfonamide]
14 | 231 °C | NS(=O)(=O)c1cccc(-c2noc(-c3cnn4c(C(F)F)cc(-c5ccc(Cl)cc5)nc34)n2)c1 [Example 19, 3-{5-[5-(4-Chloro-phenyl)-7-difluoromethyl-pyrazolo[1,5-a]pyrimidin-3-yl]-[1,2,4]oxadiazol-3-yl}-benzenesulfonamide]
15 | 324 °C | Cc1cc(-c2cc(C(F)(F)F)n3ncc(-c4nc(-c5ccc(S(N)(=O)=O)s5)no4)c3n2)ccc1C(F)(F)F [Example 22, 5-{5-[5-(3-Methyl-4-trifluoromethyl-phenyl)-7-trifluoromethyl-pyrazolo[1,5-a]pyrimidin-3-yl]-[1,2,4]oxadiazol-3-yl}-thiophene-2-sulfonic acid amide]
16 | 255 °C | NS(=O)(=O)c1ccc(-c2noc(-c3cnn4c(C(F)(F)F)cc(-c5ccc(C(F)(F)F)c(OCC(F)(F)F)c5)nc34)n2)s1 [Example 23, 5-(5-{5-[3-(2,2,2-Trifluoro-ethoxy)-4-trifluoromethyl-phenyl]-7-trifluoromethyl-pyrazolo[1,5-a]pyrimidin-3-yl}-[1,2,4]oxadiazol-3-yl)-thiophene-2-sulfonic acid amide]
17 | 294 °C | NS(=O)(=O)c1ccc(-c2noc(-c3cnn4c(C(F)(F)F)cc(-c5ccc(Cl)cc5)nc34)n2)s1 [Example 28, 5-{5-[5-(4-Chloro-phenyl)-7-trifluoromethyl-pyrazolo[1,5-a]pyrimidin-3-yl]-[1,2,4]oxadiazol-3-yl}-thiophene-2-sulfonic acid amide]
18 | 259 °C | NS(=O)(=O)c1ccc(-c2noc(-c3cnn4c(C(F)F)cc(-c5ccc(Cl)cc5)nc34)n2)s1 [Example 29, 5-{5-[5-(4-Chloro-phenyl)-7-difluoromethyl-pyrazolo[1,5-a]pyrimidin-3-yl]-[1,2,4]oxadiazol-3-yl}-thiophene-2-sulfonic acid amide]
19 | 253 °C | Cc1cc(-c2ccc(Cl)cc2)nc2c(-c3nc(-c4ccc(S(N)(=O)=O)s4)no3)cnn12 [Example 32, 5-{5-[5-(4-Chloro-phenyl)-7-methyl-pyrazolo[1,5-a]pyrimidin-3-yl]-[1,2,4]oxadiazol-3-yl}-thiophene-2-sulfonic acid amide]
20 | 272 °C | NS(=O)(=O)c1ccc(-c2nc(-c3cnn4c(C(F)(F)F)cc(-c5ccc(C(F)(F)F)cc5)nc34)no2)s1 [Example 33, 5-{3-[7-Trifluoromethyl-5-(4-trifluoromethyl-phenyl)-pyrazolo[1,5-a]pyrimidin-3-yl]-[1,2,4]oxadiazol-5-yl}-thiophene-2-sulfonic acid amide]
